“Also recorded” adds a separate entry of the source.
Key:
[1] = test system: western corn root worm larvae; test: Glass bead Y-tube choice test, corn volatiles versus CO2 (Example 19); set-up: species or system Diabrotica virgifera virgifera LeConte; details: in vivo
Procedure: Bioassay Procedure. All bioassays were choice tests conducted using a vertical glass “Y” tube apparatus filled with 3-mm glass beads (Bernklau and Bjostad 1998) (FIG. 62). Volatile compounds were prepared in 35-ml polyethylene syringes (cat no. 106-0490, Sherwood Medical, St. Louis, Mo.) and a syringe pump (Sage Model 355, Fisher Scientific, Pittsburgh, Pa.) was used to provide, slow (1 ml per min) consistent delivery of the compounds into each choice arm of the bioassay apparatus. Twenty newly-hatched larvae (less than 12-hours-old) were used for each bioassay. Non-diapausing larvae were used for all experiments unless otherwise indicated below. For each choice test a minimum of 10 replicates were conducted.
Corn Headspace Versus CO2. Using the glass bead bioassay (Bernklau and Bjostad 1998) the headspace over germinating corn seeds was tested in a choice test against a series of CO2 concentrations to determine if corn volatiles (including CO2) were more attractive to the larvae than CO2 alone. A 35-ml syringe was filled with the headspace over 3-day-old germinating corn seedlings by means of a 25-cm length of slender Teflon tubing inserted into a hole drilled into the cover of the tub containing the corn seedlings.
Three different concentrations of CO2 were tested on the control side of the choice test. In the 1 st test, we used ambient room air on the control side, which contains a lower concentration of CO2 than the corn headspace (approximately 1.0 mmol/mol). In the 2nd test, we used GC-MS-SIM to match the CO2 concentration in the syringe on the control side to be equal to that measured in the syringe containing corn headspace. In the 3rd test, the syringe on the control side of the choice test contained a CO2 concentration twice that measured in the corn headspace. To prepare each of these control concentrations, a 2nd 35-ml polyethylene syringe was partially filled (approximately 5 ml) from a tank containing pure (100%) CO2 using a glass syringe. Headspace from a plastic tub containing only moist germination paper was drawn into the syringe to fill it, mixing the air and CO2 thoroughly at the same time. The gas mixtures in the polyethylene syringes were allowed to equilibrate for 15 minutes, and GC-MS-SIM was used to verify the CO2 concentrations in both syringes prior to each bioassay.
Corn Headspace Versus CO2 with Diapausing Larvae. The larvae used in our studies were from a colony of nondiapausing western corn root worm that has been maintained in our laboratory since 1986. We wished to determine if diapausing western corn root worm larvae would respond differently to corn volatiles than the colony larvae. Using the same method described above, the headspace over germinating corn seeds was tested in a choice test against a series of CO2 concentrations with western corn root worm larvae from a diapausing strain.
Corn Headspace-Coated Glass Beads versus CO2. In the previous experiments, corn volatiles were introduced into the bottom of the Y-tube and carried through the glass beads by the airstream from the syringe pump. We also tested the possibility that some volatile compounds may have been removed from the airstream by coating out on the glass beads on the bottom of the Y-tube where they would not be available for the larvae to detect at the choice point near the middle of the Y-tube. […]

Reticulitermes tibialis = test: T-tube choice-test behavioral bioassay with CO2; format: in vivo
Procedure: Behavioral bioassay apparatus: The choice-test bioassay apparatus was constructed from a glass T-tube (5 mm inside diameter, 5 mm stem, with each branch 4.5 cm long). Each branch of the ‘T’ was bent downward (2.5 cm from the junction of the ‘T’) at a 45° angle to form a pitfall trap. A 5 mm NMR cap (cat. no. 100-0050, Drummond Scientific, Broomall, Pa.) with a 1 mm pinhole in it was firmly pushed over the end of each bent branch. A 25 cm length of Teflon tubing (0.8 mm inside diameter) was inserted 3 mm into the hole in each NMR cap and the other end of the tubing was connected to a 35 ml polyethylene syringe (cat. no. 106-0490, Sherwood Medical, St. Louis, Mo.). The two 35-ml syringes were connected to a syringe pump which was adjusted to provide an airflow of 1 ml per min into each choice arm of the bioassay apparatus.
Mixtures of CO2 and ambient air were tested to determine the termite response to a range of CO2 concentrations. […] The CO2 concentration of the syringes was determined by using GC-MS-SIM analysis (see below) before each bioassay. […]
Procedure: For bioassays, termite workers were collected from plastic tubs by using a camel's hair brush and were placed into a holding container constructed from a 3 cm length of Teflon tubing (8 mm inside diameter). […] Bioassays were conducted for 15 min, after which the number of termites in each pitfall was recorded. […]

wireworm larvae = details: in vivo; cited from earlier work

O=C=O [CO2, carbon dioxide]
role in attraction of larvae to corn roots (conclusion) [1]: the only attractive volatile compound that attracts western corn root worm larvae to corn roots | termite choice, CO2 side versus ambient air control side (Reticulitermes tibialis; 5 mmol/mol CO2 versus ambient air, 15 min): significantly greater than the number that moved to the control side; also recorded: chose the mmol/mol CO2 side significantly more often; also recorded: Significantly more termites (p<0.05) were attracted to the side containing 5 mmol/mol CO2 than to the control side | CO2 concentration of best attraction (Reticulitermes tibialis; in vivo): 5 mmol per mol | smallest CO2 difference responded to (wireworm larvae): 0.02%

Source: US20050063956A1, “Method and device for attracting insects” (Colorado State University Research Foundation, priority 1998, published 2005)
